Data as given in US9517244B2, “Therapeutic combinations for use in neoplasia” (University of Florida Research Foundation, Inc., priority 2011, dated 2016).
Read-outs that look alike come from different tables or passages of the source.

Legend:
Test in all cases: MTT assay, pancreatic cancer cell line
Assay type in all cases: cell-based, human
Settings in all cases: 72 h
[1] = test system: AsPC1
[2] = test system: PANC1
[3] = test system: Mia-PaCa2
[4] = test system: BxPC3
[5] = test system: HPAC

## Nc1ccn([C@@H]2O[C@H](CO)[C@@H](O)C2(F)F)c(=O)n1 [dFdC, gemcitabine]
[1]; Homo sapiens, AsPC1 (dFdC-resistant), single agent, read-out: IC50
  IC50: 1830 ± 470 nM
[2]; Homo sapiens, PANC-1, PANC1 (dFdC-resistant), single agent, read-out: IC50
  IC50: 11600 ± 2930 nM
[3]; Homo sapiens, MIA PaCa-2, Mia-PaCa2 (dFdC-resistant), single agent, read-out: IC50
  IC50: 11500 ± 2900 nM
[4]; Homo sapiens, BXPC-3, BxPC3 (dFdC-sensitive), single agent, read-out: IC50
  IC50: 70 ± 5 nM
[5]; Homo sapiens, HPAC (dFdC-sensitive), single agent, read-out: IC50
  IC50: 70 ± 7 nM

## [NH2][Pt]([NH2])([Cl])[Cl] [CDDP, cisplatin]
[1]; AsPC1, NSC-30049 0 μM, 1 μM dFdC, read-out: IC50 of CDDP
  IC50: 3190 ± 280 nM
[1]; AsPC1, NSC-30049 0 μM, no dFdC, read-out: IC50 of CDDP
  IC50: 3490 ± 130 nM
[1]; AsPC1, NSC-30049 0.5 μM, 1 μM dFdC, read-out: IC50 of CDDP
  IC50: 640 ± 80 nM
[1]; AsPC1, NSC-30049 0.5 μM, no dFdC, read-out: IC50 of CDDP
  IC50: 2200 ± 220 nM
[1]; AsPC1, NSC-30049 1.0 μM, 1 μM dFdC, read-out: IC50 of CDDP
  IC50: 110 ± 90 nM
[1]; AsPC1, NSC-30049 1.0 μM, no dFdC, read-out: IC50 of CDDP
  IC50: 2090 ± 190 nM
[1]; AsPC1, NSC-30049 2.5 μM, 1 μM dFdC, read-out: IC50 of CDDP
  IC50: 4 ± 0.1 nM
[1]; AsPC1, NSC-30049 2.5 μM, no dFdC, read-out: IC50 of CDDP
  IC50: 200 ± 10 nM
[2]; PANC1, NSC-30049 0 μM, 1 μM dFdC, read-out: IC50 of CDDP
  IC50: 9870 ± 800 nM
[2]; PANC1, NSC-30049 0 μM, no dFdC, read-out: IC50 of CDDP
  IC50: 9550 ± 940 nM
[2]; PANC1, NSC-30049 0.5 μM, 1 μM dFdC, read-out: IC50 of CDDP
  IC50: 1060 ± 390 nM
[2]; PANC1, NSC-30049 0.5 μM, no dFdC, read-out: IC50 of CDDP
  IC50: 9000 ± 30 nM
[2]; PANC1, NSC-30049 1.0 μM, 1 μM dFdC, read-out: IC50 of CDDP
  IC50: 1030 ± 360 nM
[2]; PANC1, NSC-30049 1.0 μM, no dFdC, read-out: IC50 of CDDP
  IC50: 7800 ± 500 nM
[2]; PANC1, NSC-30049 2.5 μM, 1 μM dFdC, read-out: IC50 of CDDP
  IC50: 120 ± 90 nM
[2]; PANC1, NSC-30049 2.5 μM, no dFdC, read-out: IC50 of CDDP
  IC50: 2040 ± 410 nM
[3]; Mia-PaCa2, NSC-30049 0 μM, 1 μM dFdC, read-out: IC50 of CDDP
  IC50: 22200 ± 1150 nM
[3]; Mia-PaCa2, NSC-30049 0 μM, no dFdC, read-out: IC50 of CDDP
  IC50: 22300 ± 1100 nM
[3]; Mia-PaCa2, NSC-30049 0.5 μM, 1 μM dFdC, read-out: IC50 of CDDP
  IC50: 90 nM
[3]; Mia-PaCa2, NSC-30049 0.5 μM, no dFdC, read-out: IC50 of CDDP
  IC50: 14300 ± 490 nM
[3]; Mia-PaCa2, NSC-30049 1.0 μM, 1 μM dFdC, read-out: IC50 of CDDP
  IC50: 70 nM
[3]; Mia-PaCa2, NSC-30049 1.0 μM, no dFdC, read-out: IC50 of CDDP
  IC50: 13400 ± 1330 nM
[3]; Mia-PaCa2, NSC-30049 2.5 μM, 1 μM dFdC, read-out: IC50 of CDDP
  IC50: 70 nM
[3]; Mia-PaCa2, NSC-30049 2.5 μM, no dFdC, read-out: IC50 of CDDP
  IC50: 12200 ± 1120 nM
[4]; BxPC3, NSC-30049 0 μM, 0.025 μM dFdC, read-out: IC50 of CDDP
  IC50: 2020 ± 350 nM
[4]; BxPC3, NSC-30049 0 μM, no dFdC, read-out: IC50 of CDDP
  IC50: 1960 ± 80 nM
[4]; BxPC3, NSC-30049 0.5 μM, 0.025 μM dFdC, read-out: IC50 of CDDP
  IC50: 940 ± 60 nM
[4]; BxPC3, NSC-30049 0.5 μM, no dFdC, read-out: IC50 of CDDP
  IC50: 1530 ± 90 nM
[4]; BxPC3, NSC-30049 1.0 μM, 0.025 μM dFdC, read-out: IC50 of CDDP
  IC50: 540 ± 60 nM
[4]; BxPC3, NSC-30049 1.0 μM, no dFdC, read-out: IC50 of CDDP
  IC50: 1380 ± 40 nM
[4]; BxPC3, NSC-30049 2.5 μM, 0.025 μM dFdC, read-out: IC50 of CDDP
  IC50: 40 ± 1 nM
[4]; BxPC3, NSC-30049 2.5 μM, no dFdC, read-out: IC50 of CDDP
  IC50: 260 ± 70 nM
[5]; HPAC, NSC-30049 0 μM, 0.025 μM dFdC, read-out: IC50 of CDDP
  IC50: 13800 ± 5510 nM
[5]; HPAC, NSC-30049 0 μM, no dFdC, read-out: IC50 of CDDP
  IC50: 14100 ± 4340 nM
[5]; HPAC, NSC-30049 0.5 μM, 0.025 μM dFdC, read-out: IC50 of CDDP
  IC50: 20 ± 10 nM
[5]; HPAC, NSC-30049 0.5 μM, no dFdC, read-out: IC50 of CDDP
  IC50: 14500 ± 2470 nM
[5]; HPAC, NSC-30049 1.0 μM, 0.025 μM dFdC, read-out: IC50 of CDDP
  IC50: 10 ± 1 nM
[5]; HPAC, NSC-30049 1.0 μM, no dFdC, read-out: IC50 of CDDP
  IC50: 11600 ± 1820 nM
[5]; HPAC, NSC-30049 2.5 μM, 0.025 μM dFdC, read-out: IC50 of CDDP
  IC50: 10 ± 1 nM
[5]; HPAC, NSC-30049 2.5 μM, no dFdC, read-out: IC50 of CDDP
  IC50: 4710 ± 1240 nM
